# Like-named read-outs stand apart in the source and are kept apart here.
# What was measured:
# [1] = in vitro; settings: human
# [2] = test system: Plasmodium falciparum Dd2 asexual blood stage parasites; assay: microbe, parasite or virus in culture; parameters: species or system Plasmodium falciparum Dd2 in human erythrocytes; single determination (one 11-point concentration-response curve); settings: Plasmodium falciparum, DD2, Erythrocyte, 72 h
# [3] = HepG2-A16-CD81EGFP cells, uninfected
SMILES,"viability at 48 h, 1 µM [1, 3]","viability at 48 h, 3 µM [1, 3]",AC50 ([2]; read-out: AC50),further results
C=CCOC(=O)C(C#N)c1nc2ccccc2nc1N1CCC(C(=O)OCC)CC1 (stereo not drawn) [MLS000036470-01],108%,100%,2370 nM,–
CCC(C)c1ccc(O)c(NC(=O)c2cncc(Br)c2)c1 (stereo not drawn) [MLS000062368-01],113%,103%,2990 nM,–
Cc1ccccc1NC(=O)c1cc(C(=O)c2cc(Cl)ccc2O)cn(-c2ccccc2C)c1=O [MLS000374594-01],98%,93%,376 nM,–
CCN(CC)CCC(c1ccc2c(c1)OCO2)c1c(O)cc(OC)cc1OC (stereo not drawn) [MLS000879498-01],–,–,4220 nM,"viability at 66 h [1, 3]: 103%"
CCCn1c(SCC(=O)Nc2cc(Cl)ccc2Cl)n[nH]c1=O [MLS001002877-01],97%,94%,5310 nM,–
CCN1CCCC1CNc1ncnc2c1[nH]c1ccc(Cl)cc12 (stereo not drawn) [MLS000041736-01],98.5%,–,–,"viability at 48 h [1, 3]: 98.5%; AC50 [2]: 2990 nM"
Cc1cc(O)c(CN2CC=C(c3ccccc3)CC2)cc1C(C)C [MLS001176749-01],–,–,335 nM,"viability at 48 h, 1 µM [1]: 106%; viability at 48 h, 3 µM [1]: 105%"
CC(C)N1C(=S)N(Cc2ccco2)C(=O)C1CC(=O)Nc1ccccc1 (stereo not drawn) [MLS000729199-01],99%,109%,1680 nM,–
Clc1ccc(-c2nnc(N3CCCC3)nn2)cc1 [MLS000038815-01],–,–,531 nM,"viability at 66 h [1, 3]: 102%"
CCC1(OC(=O)CN)C(=O)OCc2c1cc1n(c2=O)Cc2cc3ccccc3nc2-1 (stereo not drawn) [MLS000766263-01],–,–,–,viability [1]: 24.7%; AC50 [2]: 6680 nM
O=C(CCl)N(c1ccccc1)c1c[nH]c2ccccc12 [MLS000554103-01],100%,100%,2110 nM,–
CCN(CC)CCN1C(=O)c2ccccc2NC1c1ccc(C)cc1 (stereo not drawn) [MLS000558946-01],98%,104%,2990 nM,–
O=C(c1cnn2c(C(F)F)cc(-c3ccccc3)nc12)N1CCCCC1c1cccnc1 (stereo not drawn) [MLS000728797-01],102%,–,8410 nM,"viability at 48 h [1, 3]: 102%"
O=C1C(c2ccccc2)=[N+](O)c2ccccc21 [MLS001241052-01],–,–,1880 nM,"viability at 66 h [1, 3]: 97.9%"
O=c1c2ccccc2nc(/C=C/c2cc(Br)ccc2O)n1CCCO [MLS001197097-01],–,–,9440 nM,"viability at 66 h [1, 3]: 103%"
COc1ccc2c(c1)C1(Nc3ccccc3-c3nc4ccccc4n31)C(=O)N2 (stereo not drawn) [MLS000080605-01],99%,104%,596 nM,–
Oc1ccc(Cl)cc1CNCc1cccc2ccccc12 [MLS002207460-01],103%,107%,841 nM,–
COc1cc(O)c(C(CCN2CCCC(C)C2)c2cc(OC)c(OC)c(OC)c2)c(OC)c1 (stereo not drawn) [MLS000879467-01],90%,88%,1880 nM,–
O=S(=O)(c1ccc2ccccc2c1)N1CCN(/C(S)=N/c2ccccc2F)CC1 [MLS000760214-01],103%,102%,4220 nM,–

SMILES,"viability at 48 h, 1 µM [1, 3]","viability at 48 h, 3 µM [1, 3]",AC50 ([2]; read-out: AC50),further results
N#Cc1nc(Nc2cc(F)cc(F)c2)c2ncn(CC(F)F)c2n1 [MLS002471784-01],97%,87%,4730 nM,–
CCc1cc2c(=O)c(-c3cnn(-c4ccccc4)c3)c(C)oc2c(CN2CCCCC2)c1O [MLS000530719-01],105%,105%,1330 nM,–
CC1CCCCN1Cc1c(O)ccc2c(=O)c(-c3nc4ccccc4s3)c(N)oc12 (stereo not drawn) [MLS000591245-01],98%,95%,1060 nM,–
CN(C)c1cc[n+](Cc2ccccc2)cc1 [MLS000070144-01],–,–,10600 nM,"viability at 66 h [1, 3]: 96.5%"
CCN1CCN(Cc2ccc(NC(=O)c3cc(NC(=O)c4nccnc4N)cc(OC)c3)cc2C(F)(F)F)CC1 [MLS000911568-01],89%,87%,4730 nM,–
C=CC1CN2CCC1CC2C(OC(C)=O)c1ccnc2ccc(OC)cc12 (stereo not drawn) [MLS000851200-01],–,–,1680 nM,viability at 66 h [1]: 99.9%
COc1cc2c3nnc(-c4ccc(F)cc4)c-3cn(Cc3ccccc3F)c2cc1OC [MLS000419426-01],113%,100%,3760 nM,–
Nc1cc2ccncc2c2ccccc12 [MLS000766157-01],98%,92%,266 nM,–
CCCCCSc1cc(O)c(C(CNC)C(C)C)cc1OC (stereo not drawn) [MLS000704380-01],–,–,168 nM,"viability at 48 h, 1 µM [1]: 106%; viability at 48 h, 3 µM [1]: 101%"
CCCCN(C(=O)c1ccco1)c1nnc(-c2cc(OC)c(OC)c(OC)c2)s1 [MLS000075381-01],–,–,2990 nM,"viability at 66 h [1, 3]: 104%"
c1ccc2c(NCCc3c[nH]c4ccccc34)c3ccccc3nc2c1 [MLS001195935-01],92%,83%,1880 nM,–
COc1ccc(C(CCN2CCCCC2)c2c(O)cc(OC)cc2OC)cc1 (stereo not drawn) [MLS000879486-01],90%,85%,1330 nM,–
Cc1ccc(Cl)cc1N1CCN(Cc2cc3c(cc2O)CCC3)CC1 [MLS000572148-01],103%,99%,188 nM,–
CCCNC(=O)c1ccc(N2CCC3(CC2)CC(c2cccc(Br)c2)=NO3)c(NC(=O)c2ccco2)c1 [MLS001074397-01],118%,104%,2990 nM,–
C=C(C)CSc1nc2sc3c(c2c(=O)n1C1CCCCC1)CCN(C)C3 [MLS000779440-01],98%,91%,2370 nM,–
CCOC(=O)c1cn(CC)c2cc(N3CCSCC3)c(F)cc2c1=O [MLS000038775-01],89%,85%,1680 nM,–
O=C(Nc1ccc(N2CCCCC2)c(Cl)c1)c1nnc[nH]1 [MLS000035389-01],101%,99%,4730 nM,–
COc1ccc(C(CCN2CCN(c3ccccc3)CC2)c2c(O)cc(OC)cc2OC)cc1 (stereo not drawn) [MLS000879538-01],95%,95%,944 nM,–
Oc1ccc(Cl)cc1-c1cc(C(F)(F)C(F)F)nc(-c2ccccc2)n1 [MLS000530553-01],93%,87%,841 nM,–

SMILES,"viability at 48 h, 1 µM [1, 3]","viability at 48 h, 3 µM [1, 3]",AC50 ([2]; read-out: AC50),further results
CCOc1ccccc1C1c2[nH]c3ccccc3c2C[C@H]2C(=O)N(C3CCN(Cc4ccccc4)CC3)CC(=O)N12 (stereo partly drawn) [MLS001215140-01],106%,101%,2370 nM,–
CCOC(=O)c1c(C)n(-c2ccc(F)cc2)c2ccc(O)cc12 [MLS001195957-01],109%,93%,6680 nM,–
CCCN1CCc2c(sc3nc(SC)n(-c4ccccc4)c(=O)c23)C1 [MLS001173550-01],112%,101%,2660 nM,–
Cc1nccn1CC(O)Cn1c2ccccc2c2ccccc21 (stereo not drawn) [MLS000527796-01],103%,–,8410 nM,"viability at 48 h [1, 3]: 103%"
CCCCN(CC)CCNC(=O)c1cc2c(-c3ccc(Cl)cc3)nn(C)c2s1 [NCGC00108995-01],102%,97%,668 nM,–
CN1C2CCC1/C(=C\c1ccccc1)C(=O)/C2=C\c1ccccc1 [MLS000551165-01],–,–,2110 nM,viability at 66 h [1]: 95.8%
O=C(CN1C2=NCCCN2c2ccccc21)c1ccc(Cl)cc1Cl [MLS000662689-01],99%,94%,6680 nM,–
COc1ccc(NC2=C(c3ccc(OC)cc3)C(=O)c3ccccc32)cc1 [MLS000562793-01],91%,90%,5960 nM,–
CCn1c2c(c(=N)c3c1CCC3)CCCC2 [MLS001047512-01],–,–,13300 nM,"viability at 66 h [1, 3]: 100%"
N#Cc1cc(C(=O)c2cc(Br)ccc2O)cn(C2CCCCC2)c1=O [MLS000565115-01],90%,84%,668 nM,–
CCn1c(SCC(=O)NCCc2ccccc2)nc2sc3c(c2c1=O)CCN(C)C3 [MLS000332196-01],96%,87%,5310 nM,–
OC(CNC1CCCCCC1)COc1cccc2ccccc12 (stereo not drawn) [MLS001174634-01],103%,98%,1880 nM,–
COC(=O)c1c(-c2c(Cl)cccc2Cl)noc1NC(=O)NN1CCCCC1 [MLS000861266-01],93%,87%,2370 nM,–
CCOc1cc(C(=O)N2CCC(CC3CC(c4cccc(Br)c4)=NO3)(C(=O)NCC3CCCCC3)CC2)cc(OCC)c1OCC (stereo not drawn) [MLS001074456-01],106%,103%,1680 nM,–
CC(C)Oc1ccc(CCc2nnc(S)n2Cc2ccccc2)cc1 [MLS000582839-01],101%,103%,5310 nM,–
Cc1cccc(NC(=O)Cn2c(C)c(C#N)c3ccccc32)c1C [MLS000030212-01],99.9%,–,5960 nM,"viability at 48 h [1, 3]: 99.9%"
CCCc1cc(=O)oc2c(C)c(O)c(CN3CCCCC3)cc12 [MLS000081526-01],–,–,3350 nM,"viability at 66 h [1, 3]: 104%"
COc1ccc(-c2csc3ncnc(Cl)c23)cc1 [MLS000765103-01],86%,86%,4220 nM,–
O=C(NCCCN1CCCC1)c1ccc2c(c1)N([S+](=O)([O-])c1ccccc1F)CC2 [NCGC00430450-01],–,–,9440 nM,"viability at 66 h [1, 3]: 97.4%"

# From publication PMC7822874, “Chemoprotective antimalarials identified through quantitative high-throughput screening of Plasmodium blood and liver stage parasites” (Scientific Reports, 2021)
